From paper PMC3412733, “Identification and recombinant expression of anandamide hydrolyzing enzyme from Dictyostelium discoideum” (BMC Microbiology, 2012)

Molecular target: T1, MBP-FAAH (Dictyostelium FAAH) (Dictyostelium discoideum, UniProt Q8MMR8)
T1 construct: gene DDB_G0275967; full length (637 residues) with N-terminal MBP and 6xHis tags kept, expressed in E. coli BL21(DE3) (pCWMalET), amylose resin purified
T1 sequence (Q8MMR8 1-637): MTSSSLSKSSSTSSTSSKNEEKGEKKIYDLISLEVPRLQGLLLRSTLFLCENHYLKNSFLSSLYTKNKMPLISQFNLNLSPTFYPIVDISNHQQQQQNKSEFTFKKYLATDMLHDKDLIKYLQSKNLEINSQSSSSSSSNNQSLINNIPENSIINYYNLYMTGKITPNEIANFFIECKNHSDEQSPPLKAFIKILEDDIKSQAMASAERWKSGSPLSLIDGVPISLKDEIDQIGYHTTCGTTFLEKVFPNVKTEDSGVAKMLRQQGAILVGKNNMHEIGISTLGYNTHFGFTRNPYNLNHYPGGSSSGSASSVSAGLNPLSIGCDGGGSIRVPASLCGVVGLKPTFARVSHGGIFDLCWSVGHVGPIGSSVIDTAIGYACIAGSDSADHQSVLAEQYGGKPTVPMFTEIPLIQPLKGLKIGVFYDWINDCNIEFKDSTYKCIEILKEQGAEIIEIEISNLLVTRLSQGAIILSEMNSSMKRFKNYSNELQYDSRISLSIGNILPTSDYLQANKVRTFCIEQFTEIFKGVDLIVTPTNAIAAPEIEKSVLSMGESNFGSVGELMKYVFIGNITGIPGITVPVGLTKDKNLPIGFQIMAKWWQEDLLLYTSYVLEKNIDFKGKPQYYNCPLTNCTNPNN
Assay: CE-ES-MS of product arachidonic acid
Format: biochemical
Details: pH 9.0, 50 mM NaCl, 10% DMSO, 37°C, 30 min

SMILES: CCCCC/C=C\C/C=C\C/C=C\C/C=C\CCCC(=O)NCCO [anandamide]
- CE-ES-MS of product arachidonic acid: hydrolyzed anandamide to free arachidonic acid and ethanolamine as determined by CE-ES-MS
